In patent publication US20210322582A1, “RADIOACTIVE IMIDAZOTHIADIAZOLE DERIVATIVE COMPOUND” (Nihon Medi-Physics Co., Ltd., priority 2018, published 2021):

Test system: HT-29-transplanted tumor
Assay: Biodistribution of [^111In]ITDA3 in HT-29 cancer-bearing mouse
Assay type: in vivo
Details: for Accumulation of radioactivity: Blood / Accumulation of radioactivity: Brain / Accumulation of radioactivity: HT-29 tumor / Accumulation of radioactivity: Heart / Accumulation of radioactivity: Intestines / Accumulation of radioactivity: Kidney / Accumulation of radioactivity: Liver / Accumulation of radioactivity: Lungs / Accumulation of radioactivity: Muscle / Accumulation of radioactivity: Pancreas / Accumulation of radioactivity: Spleen / Accumulation of radioactivity: Stomach / Tumor/blood / Tumor/muscle: HT-29 mouse
Procedure: HT-29 cells and MDA-MB-231 cells (5×10^6 cells/mouse) were subcutaneously inoculated into the left shoulders of 5-week old male BALB/c nude mice, respectively. A saline solution (100 μL) in which[^111In]ITDA3 (40 kBq) had been dissolved was administered to each of the cancer-bearing mice (n=5) via the tail vein. The HT-29 cancer-bearing mice were slaughtered after the lapse of 1, 4, and 24 hours from the administration, the MDA-MB-231 cancer-bearing mouse was slaughtered after the lapse of 24 hours from the administration, and the blood, spleen, pancreas, stomach, intestines, kidney, liver, heart, lungs, brain, HT-29 or MDA-MB-231-transplanted tumor, and muscle were recovered from each of the mice. The weight of each organ was measured, and the amount of radioactivity in each organ was measured by using a gamma counter. The accumulation of radioactivity in each organ except for stomach was expressed by % ID (injected dose)/g obtained by dividing the ratio of the amount of radioactivity of each organ to the administered amount of radioactivity by the organ weight. The stomach was expressed by % ID (injected dose).

`NS(=O)(=O)c1nn2cc(-c3ccc(NC(=O)CCC(C(=O)O)N4CCN(CC(=O)[O-])CCN(CC(=O)[O-])CCN(CC(=O)[O-])CC4)cc3)nc2s1.[111In+3]` (centres unmarked) [[^111In]ITDA3] was tested, and the “Accumulation of radioactivity: Blood” value (1 hour after administration) was 0.09 ± 0.01 % ID/g, the “Accumulation of radioactivity: Brain” value (1 hour after administration) was 0.27 ± 0.05 % ID/g and the “Accumulation of radioactivity: HT-29 tumor” value (shortened to “Accumulation … HT-29 tumor”) (1 hour after administration) was 1.60 ± 0.16 % ID/g. For the same molecule, the “Accumulation of radioactivity: Heart” value (1 hour after administration) was 6.91 ± 0.32 % ID/g, the “Accumulation of radioactivity: Intestines” value (1 hour after administration) was 8.33 ± 0.44 % ID/g and the “Accumulation of radioactivity: Kidney” value (1 hour after administration) was 95.81 ± 9.44 % ID/g. The “Accumulation of radioactivity: Liver” value (1 hour after administration) was 8.42 ± 1.42 % ID/g, the “Accumulation of radioactivity: Lungs” value (1 hour after administration) was 3.58 ± 0.86 % ID/g and the “Accumulation of radioactivity: Muscle” value (1 hour after administration) was 2.47 ± 0.45 % ID/g. For the same molecule, the “Accumulation of radioactivity: Pancreas” value (1 hour after administration) was 14.89 ± 3.20 % ID/g, the “Accumulation of radioactivity: Spleen” value (1 hour after administration) was 0.13 ± 0.20 % ID/g and the “Accumulation of radioactivity: Stomach” value (1 hour after administration) was 1.80 ± 0.27 % ID. For the same molecule, the Tumor/blood (1 hour after administration) was 18.89 ± 2.68, the Tumor/muscle (1 hour after administration) was 0.66 ± 0.09 and the “Accumulation of radioactivity: Blood” value (4 hours after administration) was 0.06 ± 0.01 % ID/g. For the same molecule, the “Accumulation of radioactivity: Brain” value (4 hours after administration) was 0.26 ± 0.04 % ID/g, the “Accumulation … HT-29 tumor” value (4 hours after administration) was 1.71 ± 0.28 % ID/g and the “Accumulation of radioactivity: Heart” value (4 hours after administration) was 2.87 ± 0.36 % ID/g. For the same molecule, the “Accumulation of radioactivity: Intestines” value (4 hours after administration) was 7.2 ± 1.53 % ID/g, the “Accumulation of radioactivity: Kidney” value (4 hours after administration) was 80.09 ± 5.11 % ID/g and the “Accumulation of radioactivity: Liver” value (4 hours after administration) was 6.51 ± 1.50 % ID/g. The “Accumulation of radioactivity: Lungs” value (4 hours after administration) was 2.24 ± 0.44 % ID/g, the “Accumulation of radioactivity: Muscle” value (4 hours after administration) was 1.88 ± 0.13 % ID/g and the “Accumulation of radioactivity: Pancreas” value (4 hours after administration) was 6.2 ± 0.78 % ID/g. The “Accumulation of radioactivity: Spleen” value (4 hours after administration) was 0.04 ± 0.03 % ID/g, the “Accumulation of radioactivity: Stomach” value (4 hours after administration) was 0.83 ± 0.11 % ID and the Tumor/blood (4 hours after administration) was 28.6 ± 3.24. For the same molecule, the Tumor/muscle (4 hours after administration) was 0.92 ± 0.15, the “Accumulation of radioactivity: Blood” value (24 hours after administration) was 0.06 ± 0.01 % ID/g and the “Accumulation of radioactivity: Brain” value (24 hours after administration) was 0.33 ± 0.07 % ID/g. The “Accumulation … HT-29 tumor” value (24 hours after administration) was 3.02 ± 0.37 % ID/g, the “Accumulation of radioactivity: Heart” value (24 hours after administration) was 2.00 ± 0.38 % ID/g and the “Accumulation of radioactivity: Intestines” value (24 hours after administration) was 11.11 ± 0.85 % ID/g. For the same molecule, the “Accumulation of radioactivity: Kidney” value (24 hours after administration) was 70.19 ± 9.28 % ID/g, the “Accumulation of radioactivity: Liver” value (24 hours after administration) was 4.92 ± 1.01 % ID/g and the “Accumulation of radioactivity: Lungs” value (24 hours after administration) was 1.20 ± 0.15 % ID/g. The “Accumulation of radioactivity: Muscle” value (24 hours after administration) was 1.63 ± 0.79 % ID/g, the “Accumulation of radioactivity: Pancreas” value (24 hours after administration) was 3.85 ± 0.68 % ID/g and the “Accumulation of radioactivity: Spleen” value (24 hours after administration) was 0.08 ± 0.05 % ID/g. The “Accumulation of radioactivity: Stomach” value (24 hours after administration) was 0.48 ± 0.04 % ID, the Tumor/blood (24 hours after administration) was 52.06 ± 6.11 and the Tumor/muscle (24 hours after administration) was 2.08 ± 0.67. The “Amount of tumor accumulation compared with [^111In]ITDA1” value (from Table 5) was “lower than that of [^111In]ITDA1” and the “Amounts of accumulation in normal tissues (in particular, pancreas, stomach, intestines, and lungs)” value (from Table 5) was “small”.
